Experiments:
Experiment in all cases: relative viability (nuclei count vs DMSO), 5 days (fraction); higher = more cells survive
HOP-62 = tested on: HOP-62
Outline: (§1)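 Relative viability is defined as nuclei in treated wells over nuclei in vehicle wells. Duplicate plates were run and medians reported. Lung cancer cell lines in 1536-well plates were dosed by pin tool one day after seeding, with one drug or with a fixed anchor-drug dose plus five library-drug doses (not always all listed) in √10 steps, and nuclei were counted after 5 days.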

NCI-H1793 = tested on: NCI-H1793
Outline: as §1

UMC-11 = tested on: UMC-11
Outline: as §1

HCC-15 = tested on: HCC-15
Outline: as §1

NCI-H1395 = tested on: NCI-H1395
Outline: as §1

NCI-H2347 = tested on: NCI-H2347
Outline: as §1

NCI-H1993 = tested on: NCI-H1993
Outline: as §1

NCI-H2170 = tested on: NCI-H2170
Outline: as §1

NCI-H2009 = tested on: NCI-H2009
Outline: as §1

NCI-H2228 = tested on: NCI-H2228
Outline: as §1

NCI-H1355 = tested on: NCI-H1355
Outline: as §1

SK-MES-1 = tested on: SK-MES-1
Outline: as §1

NCI-H1734 = tested on: NCI-H1734
Outline: as §1

NCI-H522 = tested on: NCI-H522
Outline: as §1

COR-L 105 = tested on: COR-L 105
Outline: as §1

NCI-H358 = tested on: NCI-H358
Outline: as §1

HARA = tested on: HARA
Outline: as §1

NCI-H647 = tested on: NCI-H647
Outline: as §1

COR-L23 = tested on: COR-L23
Outline: as §1

NCI-H1755 = tested on: NCI-H1755
Outline: as §1

NCI-H838 = tested on: NCI-H838
Outline: as §1

CC(=O)O[C@@]12CO[C@@H]1C[C@H](O)[C@@]1(C)C(=O)[C@H](O)C3=C(C)[C@@H](OC(=O)[C@H](O)[C@@H](NC(=O)OC(C)(C)C)c4ccccc4)C[C@@](O)([C@@H](OC(=O)c4ccccc4)[C@H]21)C3(C)C [Docetaxel] + O=C(CCCCCCC(=O)Nc1ccccc1)NO [Vorinostat] (partner 1 µM)
relative viability (HOP-62; first compound 0.0002 µM): 0.522
relative viability (HOP-62; first compound 0.000632 µM): 0.346
relative viability (NCI-H1793; first compound 0.0002 µM): 0.724
relative viability (NCI-H1793; first compound 0.000632 µM): 0.479
relative viability (NCI-H1793; first compound 0.002 µM): 0.199
relative viability (NCI-H1793; first compound 0.006325 µM): 0.26
relative viability (NCI-H1793; first compound 0.02 µM): 0.163
relative viability (UMC-11; first compound 0.0002 µM): 0.402
relative viability (UMC-11; first compound 0.000632 µM): 0.287
relative viability (UMC-11; first compound 0.002 µM): 0.155
relative viability (UMC-11; first compound 0.006325 µM): 0.203
relative viability (UMC-11; first compound 0.02 µM): 0.108
relative viability (HCC-15; first compound 0.0002 µM): 0.856
relative viability (HCC-15; first compound 0.000632 µM): 0.574
relative viability (HCC-15; first compound 0.006325 µM): 0.227
relative viability (HCC-15; first compound 0.02 µM): 0.131
relative viability (NCI-H1395; first compound 0.0002 µM): 0.672
relative viability (NCI-H1395; first compound 0.000632 µM): 0.601
relative viability (NCI-H1395; first compound 0.002 µM): 0.462
relative viability (NCI-H1395; first compound 0.006325 µM): 0.375
relative viability (NCI-H1395; first compound 0.02 µM): 0.239
relative viability (NCI-H2347; first compound 0.0002 µM): 0.726
relative viability (NCI-H2347; first compound 0.000632 µM): 0.554
relative viability (NCI-H2347; first compound 0.002 µM): 0.418
relative viability (NCI-H2347; first compound 0.006325 µM): 0.434
relative viability (NCI-H2347; first compound 0.02 µM): 0.33
relative viability (NCI-H1993; first compound 0.0002 µM): 0.594
relative viability (NCI-H1993; first compound 0.000632 µM): 0.499
relative viability (NCI-H1993; first compound 0.002 µM): 0.376
relative viability (NCI-H1993; first compound 0.006325 µM): 0.392
relative viability (NCI-H1993; first compound 0.02 µM): 0.246
relative viability (NCI-H2170; first compound 0.0002 µM): 0.787
relative viability (NCI-H2170; first compound 0.000632 µM): 0.551
relative viability (NCI-H2170; first compound 0.002 µM): 0.388
relative viability (NCI-H2170; first compound 0.006325 µM): 0.162
relative viability (NCI-H2170; first compound 0.02 µM): 0.136
relative viability (NCI-H2009; first compound 0.0002 µM): 0.714
relative viability (NCI-H2009; first compound 0.000632 µM): 0.715
relative viability (NCI-H2009; first compound 0.002 µM): 0.707
relative viability (NCI-H2009; first compound 0.006325 µM): 0.301
relative viability (NCI-H2009; first compound 0.02 µM): 0.176
relative viability (NCI-H2228; first compound 0.0002 µM): 0.565
relative viability (NCI-H2228; first compound 0.000632 µM): 0.145
relative viability (NCI-H2228; first compound 0.002 µM): 0.168
relative viability (NCI-H2228; first compound 0.006325 µM): 0.151
relative viability (NCI-H2228; first compound 0.02 µM): 0.145
relative viability (NCI-H1355; first compound 0.0002 µM): 0.631
relative viability (NCI-H1355; first compound 0.000632 µM): 0.626
relative viability (NCI-H1355; first compound 0.002 µM): 0.382
relative viability (NCI-H1355; first compound 0.006325 µM): 0.244
relative viability (NCI-H1355; first compound 0.02 µM): 0.176
relative viability (SK-MES-1; first compound 0.0002 µM): 1.15
relative viability (SK-MES-1; first compound 0.000632 µM): 0.925
relative viability (SK-MES-1; first compound 0.002 µM): 0.695
relative viability (SK-MES-1; first compound 0.006325 µM): 0.267
relative viability (SK-MES-1; first compound 0.02 µM): 0.212
relative viability (NCI-H1734; first compound 0.0002 µM): 0.618
relative viability (NCI-H1734; first compound 0.000632 µM): 0.506
relative viability (NCI-H1734; first compound 0.002 µM): 0.304
relative viability (NCI-H1734; first compound 0.006325 µM): 0.328
relative viability (NCI-H1734; first compound 0.02 µM): 0.207
relative viability (NCI-H522; first compound 0.0002 µM): 0.852
relative viability (NCI-H522; first compound 0.000632 µM): 0.899
relative viability (NCI-H522; first compound 0.002 µM): 0.713
relative viability (NCI-H522; first compound 0.006325 µM): 0.516
relative viability (NCI-H522; first compound 0.02 µM): 0.344
relative viability (COR-L 105; first compound 0.0002 µM): 0.889
relative viability (COR-L 105; first compound 0.000632 µM): 0.747
relative viability (COR-L 105; first compound 0.002 µM): 0.392
relative viability (COR-L 105; first compound 0.006325 µM): 0.413
relative viability (COR-L 105; first compound 0.02 µM): 0.368
relative viability (NCI-H358; first compound 0.0002 µM): 0.625
relative viability (NCI-H358; first compound 0.000632 µM): 0.399
relative viability (NCI-H358; first compound 0.002 µM): 0.109
relative viability (NCI-H358; first compound 0.006325 µM): 0.112
relative viability (NCI-H358; first compound 0.02 µM): 0.0606
relative viability (HARA; first compound 0.0002 µM): 0.5
relative viability (HARA; first compound 0.000632 µM): 0.219
relative viability (HARA; first compound 0.002 µM): 0.148
relative viability (HARA; first compound 0.006325 µM): 0.215
relative viability (HARA; first compound 0.02 µM): 0.0839
relative viability (NCI-H647; first compound 0.0002 µM): 0.486
relative viability (NCI-H647; first compound 0.000632 µM): 0.32
relative viability (NCI-H647; first compound 0.002 µM): 0.196
relative viability (NCI-H647; first compound 0.006325 µM): 0.14
relative viability (NCI-H647; first compound 0.02 µM): 0.082
relative viability (COR-L23; first compound 0.0002 µM): 0.492
relative viability (COR-L23; first compound 0.000632 µM): 0.248
relative viability (COR-L23; first compound 0.002 µM): 0.151
relative viability (COR-L23; first compound 0.006325 µM): 0.154
relative viability (COR-L23; first compound 0.02 µM): 0.0838
relative viability (NCI-H1755; first compound 0.0002 µM): 0.791
relative viability (NCI-H1755; first compound 0.000632 µM): 0.728
relative viability (NCI-H1755; first compound 0.002 µM): 0.433
relative viability (NCI-H1755; first compound 0.006325 µM): 0.479
relative viability (NCI-H1755; first compound 0.02 µM): 0.373
relative viability (NCI-H838; first compound 0.0002 µM): 0.623
relative viability (NCI-H838; first compound 0.000632 µM): 0.385
relative viability (NCI-H838; first compound 0.002 µM): 0.328
relative viability (NCI-H838; first compound 0.006325 µM): 0.208
relative viability (NCI-H838; first compound 0.02 µM): 0.16

— the supplement of paper PMC10307832
